From patent US12291519B2, “2-hydroxycycloalkane-1-carbamoyl” (Idorsia Pharmaceuticals Ltd, priority 2019, dated 2025) come the findings set out here.

In one experiment the target is human Gal-1 (hGal-1). As to the kind of experiment: Competitive binding assay: biotinylated hGal-1 binding to microplate-adsorbed asialofetuin (ASF). Particulars: Activity on hGal-1; binding of biotinylated hGal-1 to ASF-coated plates; mean values. On the procedure: (§1) Evaluation of Compound Inhibitory Activity (IC50)
human Gal-1 (hGal-1), sequence (P09382 2-135 limits assumed): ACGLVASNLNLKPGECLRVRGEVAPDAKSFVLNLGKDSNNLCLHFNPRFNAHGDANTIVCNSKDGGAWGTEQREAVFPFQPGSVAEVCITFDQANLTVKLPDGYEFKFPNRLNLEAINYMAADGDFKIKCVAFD
The inhibitory activity of compounds is determined in competitive binding assays. This spectrophotometric assay measures the binding of biotinylated human Gal-3 (hGal-3) or human Gal-1 (hGAl-1), respectively, to a microplate-adsorbed glycoprotein, asialofetuin (ASF) (Proc Natl Acad Sci USA. 2013 Mar. 26; 110(13):5052-7.). Alternatively, and preferably, a human Gal-1 version in which all six cysteines are substituted by serines may be used.
Briefly, compounds are serially diluted in DMSO (working dilutions). ASF-coated 384 well pates are supplemented with 22.8 μL/well of biotinylated hGal-3 or hGal-1 in assay buffer (i.e. 300-1000 ng/mL biotinylated hGal-3 or hGal-1) to which 1.2 μL of compound working dilutions are added and mixed.
Plates are incubated for 3 hours at 4° C. then washed with cold assay buffer (3×50 uL), incubated for 1 hour with 25 μL/well of a streptavidin-peroxidases solution (diluted in assay buffer to 80 ng/mL) at 4° C., followed by further washing steps with assay buffer (3×50 uL). Finally, 25 μL/well of ABTS substrate is added. OD (410 nm) is recorded after 30 to 45 min and IC50 values are calculated.
(§2) The calculated IC50 values may fluctuate depending on the daily assay performance. Fluctuations of this kind are known to those skilled in the art. IC50 values from several measurements are given as mean values.

Another experiment deals with human Gal-3 (hGal-3) (Homo sapiens (Human), UniProt P17931). As to the kind of experiment: Competitive binding assay: biotinylated hGal-3 binding to microplate-adsorbed asialofetuin (ASF). Particulars: Activity on hGal-3; binding of biotinylated hGal-3 to ASF-coated plates; mean values. On the procedure: as §1
human Gal-3 (hGal-3), sequence (P17931 whole entry): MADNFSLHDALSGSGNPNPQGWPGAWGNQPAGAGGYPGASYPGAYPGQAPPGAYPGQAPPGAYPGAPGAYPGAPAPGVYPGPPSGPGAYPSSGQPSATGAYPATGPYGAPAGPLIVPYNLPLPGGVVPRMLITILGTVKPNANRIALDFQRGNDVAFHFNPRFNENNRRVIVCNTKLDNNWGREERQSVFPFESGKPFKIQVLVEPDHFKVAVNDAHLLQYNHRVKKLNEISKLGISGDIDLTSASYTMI
The inhibitory activity of compounds is determined in competitive binding assays. […] Alternatively, and preferably, a human Gal-1 version in which all six cysteines are substituted by serines may be used.
Briefly, compounds are serially diluted in DMSO (working dilutions).
Plates are incubated for 3 hours at 4° C. then washed with cold assay buffer (3×50 uL), incubated for 1 hour with 25 μL/well of a streptavidin-peroxidases solution (diluted in assay buffer to 80 ng/mL) at 4° C., followed by further washing steps with assay buffer (3×50 uL). Finally, 25 μL/well of ABTS substrate is added.
as §2

Take `O=C([C@@H]1O[C@H](CO)[C@H](O)[C@H](n2cc(-c3cc(F)c(F)c(F)c3)nn2)[C@H]1O)N(Cc1ccc(Cl)o1)[C@H]1CCCC[C@@H]1O` [Example 17, (2R,3R,4S,5R,6R)-N-((5-chlorofuran-2-yl)methyl)-3,5-dihydroxy-N-((1S,2S)-2-hydroxycyclohexyl)-6-(hydroxymethyl)-4-(4-(3,4,5-trifluorophenyl)-1H-1,2,3-triazol-1-yl)tetrahydro-2H-pyran-2-carboxamide]: the IC50 was determined as 23.1 µM at human Gal-1 (hGal-1) and 281 nM at human Gal-3 (hGal-3).
In the case of `O=C([C@@H]1O[C@H](CO)[C@H](O)[C@H](n2cc(-c3cc(F)c(F)c(F)c3)nn2)[C@H]1O)N(Cc1cnsc1)[C@H]1CCCC[C@@H]1O` [Example 18, (2R,3R,4S,5R,6R)-3,5-dihydroxy-N-((1S,2S)-2-hydroxycyclohexyl)-6-(hydroxymethyl)-N-(isothiazol-4-ylmethyl)-4-(4-(3,4,5-trifluorophenyl)-1H-1,2,3-triazol-1-yl)tetrahydro-2H-pyran-2-carboxamide], the IC50 at human Gal-1 (hGal-1) came out at 11.6 µM; at human Gal-3 (hGal-3) it was 179 nM.
For the molecule `O=C([C@@H]1O[C@H](CO)[C@H](O)[C@H](n2cc(-c3cc(F)c(F)c(F)c3)nn2)[C@H]1O)N(Cc1csc(Br)n1)[C@H]1CCCC[C@@H]1O` [Example 20, (2R,3R,4S,5R,6R)-N-((2-bromothiazol-4-yl)methyl)-3,5-dihydroxy-N-((1S,2S)-2-hydroxycyclohexyl)-6-(hydroxymethyl)-4-(4-(3,4,5-trifluorophenyl)-1H-1,2,3-triazol-1-yl)tetrahydro-2H-pyran-2-carboxamide], the concentration for half-maximal inhibition (IC50) at human Gal-1 (hGal-1) was determined as 11.7 µM; at human Gal-3 (hGal-3), 352 nM.
`O=C([C@@H]1O[C@H](CO)[C@H](O)[C@H](n2cc(-c3cc(F)c(F)c(F)c3)nn2)[C@H]1O)N(Cc1cnc(N2CCOCC2)s1)[C@H]1CCCC[C@@H]1O` [Example 21]: the half-maximal inhibitory concentration (IC50) at human Gal-1 (hGal-1) stood at 10.7 µM; on human Gal-3 (hGal-3), 112 nM.
With `O=C([C@@H]1O[C@H](CO)[C@H](O)[C@H](n2cc(-c3cc(F)c(F)c(F)c3)nn2)[C@H]1O)N(Cc1ccc(Cl)s1)[C@H]1CCCC[C@@H]1O` [Example 22, (2R,3R,4S,5R,6R)-N-((5-chlorothiophen-2-yl)methyl)-3,5-dihydroxy-N-((1S,2S)-2-hydroxycyclohexyl)-6-(hydroxymethyl)-4-(4-(3,4,5-trifluorophenyl)-1H-1,2,3-triazol-1-yl)tetrahydro-2H-pyran-2-carboxamide], the IC50 on human Gal-1 (hGal-1) amounted to 86.6 µM; on human Gal-3 (hGal-3), 167 nM.
`O=C([C@@H]1O[C@H](CO)[C@H](O)[C@H](n2cc(-c3cc(F)c(F)c(F)c3)nn2)[C@H]1O)N(Cc1ncc(Cl)s1)[C@H]1CCCC[C@@H]1O` [Example 23, (2R,3R,4S,5R,6R)-N-((5-chlorothiazol-2-yl)methyl)-3,5-dihydroxy-N-((1S,2S)-2-hydroxycyclohexyl)-6-(hydroxymethyl)-4-(4-(3,4,5-trifluorophenyl)-1H-1,2,3-triazol-1-yl)tetrahydro-2H-pyran-2-carboxamide]: the figures for the IC50 on human Gal-1 (hGal-1) and at human Gal-3 (hGal-3) were 22.7 µM and 403 nM, respectively.
For `CO[C@@H]1[C@@H](n2cc(-c3cc(F)c(F)c(F)c3)nn2)[C@@H](O)[C@@H](CO)O[C@H]1C(=O)N(Cc1ncccc1C(F)(F)F)[C@H]1CCCC[C@@H]1O` [Example 25, (2R,3R,4S,5R,6R)-5-hydroxy-N-((1S,2S)-2-hydroxycyclohexyl)-6-(hydroxymethyl)-3-methoxy-N-((3-(trifluoromethyl)pyridin-2-yl)methyl)-4-(4-(3,4,5-trifluorophenyl)-1H-1,2,3-triazol-1-yl)tetrahydro-2H-pyran-2-carboxamide] the same measures were 4.92 µM and 280 nM.
As to `CO[C@@H]1[C@@H](n2cc(-c3cc(F)c(F)c(F)c3)nn2)[C@@H](O)[C@@H](CO)O[C@H]1C(=O)N(Cc1cccnc1C(F)(F)F)[C@H]1CCCC[C@@H]1O` [Example 26, (2R,3R,4S,5R,6R)-5-hydroxy-N-((1S,2S)-2-hydroxycyclohexyl)-6-(hydroxymethyl)-3-methoxy-N-((2-(trifluoromethyl)pyridin-3-yl)methyl)-4-(4-(3,4,5-trifluorophenyl)-1H-1,2,3-triazol-1-yl)tetrahydro-2H-pyran-2-carboxamide], the IC50 turned out to be 0.338 µM on human Gal-1 (hGal-1) and 159 nM on human Gal-3 (hGal-3).
Take `O=C([C@@H]1O[C@H](CO)[C@H](O)[C@H](n2cc(-c3cc(F)c(F)c(F)c3)nn2)[C@H]1O)N(Cc1cncnc1C(F)(F)F)[C@H]1CCCC[C@@H]1O` [Example 27, (2R,3R,4S,5R,6R)-3,5-dihydroxy-N-((1S,2S)-2-hydroxycyclohexyl)-6-(hydroxymethyl)-N-((4-(trifluoromethyl)pyrimidin-5-yl)methyl)-4-(4-(3,4,5-trifluorophenyl)-1H-1,2,3-triazol-1-yl)tetrahydro-2H-pyran-2-carboxamide]: the IC50 was 3.2 µM at human Gal-1 (hGal-1) and 264 nM on human Gal-3 (hGal-3).
Turning to `COc1ncnc(OC)c1CN(C(=O)[C@@H]1O[C@H](CO)[C@H](O)[C@H](n2cc(-c3cc(F)c(F)c(F)c3)nn2)[C@H]1O)[C@H]1CCCC[C@@H]1O` [Example 28, (2R,3R,4S,5R,6R)-N-((4,6-dimethoxypyrimidin-5-yl)methyl)-3,5-dihydroxy-N-((1S,2S)-2-hydroxycyclohexyl)-6-(hydroxymethyl)-4-(4-(3,4,5-trifluorophenyl)-1H-1,2,3-triazol-1-yl)tetrahydro-2H-pyran-2-carboxamide], the IC50 stood at 3.97 µM at human Gal-1 (hGal-1) and 165 nM at human Gal-3 (hGal-3).
In the case of `Cc1ncncc1CN(C(=O)[C@@H]1O[C@H](CO)[C@H](O)[C@H](n2cc(-c3cc(F)c(F)c(F)c3)nn2)[C@H]1O)[C@H]1CCCC[C@@H]1O` [Example 29, (2R,3R,4S,5R,6R)-3,5-dihydroxy-N-((1S,2S)-2-hydroxycyclohexyl)-6-(hydroxymethyl)-N-((4-methylpyrimidin-5-yl)methyl)-4-(4-(3,4,5-trifluorophenyl)-1H-1,2,3-triazol-1-yl)tetrahydro-2H-pyran-2-carboxamide], the half-maximal inhibitory concentration (IC50) stood at 4.41 µM at human Gal-1 (hGal-1) and 232 nM at human Gal-3 (hGal-3).
Turning to `CO[C@@H]1[C@@H](n2cc(-c3cc(F)c(F)c(F)c3)nn2)[C@@H](O)[C@@H](CO)O[C@H]1C(=O)N(Cc1nc[nH]c1C)[C@H]1CCCC[C@@H]1O` [Example 30, (2R,3R,4S,5R,6R)-5-hydroxy-N-((1S,2S)-2-hydroxycyclohexyl)-6-(hydroxymethyl)-3-methoxy-N-((5-methyl-1H-imidazol-4-yl)methyl)-4-(4-(3,4,5-trifluorophenyl)-1H-1,2,3-triazol-1-yl)tetrahydro-2H-pyran-2-carboxamide], the values for the IC50 at human Gal-1 (hGal-1) and on human Gal-3 (hGal-3) were 10.4 µM and 575 nM, respectively.
With `CO[C@@H]1[C@@H](n2cc(-c3cc(F)c(F)c(F)c3)nn2)[C@@H](O)[C@@H](CO)O[C@H]1C(=O)N(Cc1sncc1Cl)[C@H]1CCCC[C@@H]1O` [Example 31, (2R,3R,4S,5R,6R)-N-((4-chloroisothiazol-5-yl)methyl)-5-hydroxy-N-((1S,2S)-2-hydroxycyclohexyl)-6-(hydroxymethyl)-3-methoxy-4-(4-(3,4,5-trifluorophenyl)-1H-1,2,3-triazol-1-yl)tetrahydro-2H-pyran-2-carboxamide], the IC50 at human Gal-1 (hGal-1) turned out to be 1.48 µM; at human Gal-3 (hGal-3), 311 nM.
Turning to `CO[C@@H]1[C@@H](n2cc(-c3cc(F)c(F)c(F)c3)nn2)[C@@H](O)[C@@H](CO)O[C@H]1C(=O)N(Cc1ccnn1C)[C@H]1CCCC[C@@H]1O` [Example 32], the figures for the IC50 on human Gal-1 (hGal-1) and at human Gal-3 (hGal-3) were 0.905 µM and 122 nM, respectively.
With `CO[C@@H]1[C@@H](n2cc(-c3cc(F)c(F)c(F)c3)nn2)[C@@H](O)[C@@H](CO)O[C@H]1C(=O)N(Cc1sccc1C)[C@H]1CCCC[C@@H]1O` [Example 33, (2R,3R,4S,5R,6R)-5-hydroxy-N-((1S,2S)-2-hydroxycyclohexyl)-6-(hydroxymethyl)-3-methoxy-N-((3-methylthiophen-2-yl)methyl)-4-(4-(3,4,5-trifluorophenyl)-1H-1,2,3-triazol-1-yl)tetrahydro-2H-pyran-2-carboxamide], the IC50 was 0.962 µM at human Gal-1 (hGal-1) and 127 nM on human Gal-3 (hGal-3).
Consider `CO[C@@H]1[C@@H](n2cc(-c3cc(F)c(F)c(F)c3)nn2)[C@@H](O)[C@@H](CO)O[C@H]1C(=O)N(Cc1sccc1C)[C@H]1CCCC[C@@H]1O` [Example 34], for which the half-inhibitory concentration (IC50) at human Gal-1 (hGal-1) came out at 0.863 µM; at human Gal-3 (hGal-3) it was 69 nM.
For the molecule `CO[C@@H]1[C@@H](n2cc(-c3cc(F)c(F)c(F)c3)nn2)[C@@H](O)[C@@H](CO)O[C@H]1C(=O)N(Cc1sccc1Cl)[C@H]1CCCC[C@@H]1O` [Example 35, (2R,3R,4S,5R,6R)-N-((3-chlorothiophen-2-yl)methyl)-5-hydroxy-N-((1S,2S)-2-hydroxycyclohexyl)-6-(hydroxymethyl)-3-methoxy-4-(4-(3,4,5-trifluorophenyl)-1H-1,2,3-triazol-1-yl)tetrahydro-2H-pyran-2-carboxamide], the IC50 at human Gal-1 (hGal-1) came out at 1.63 µM; at human Gal-3 (hGal-3), 210 nM.

As usually defined, the IC50 is the concentration that gives 50% inhibition. A high value points to a need for much substance.
